Assay results published in patent US20220363662A1, “COMPOUNDS AS LXR AGONISTS” (Integral Biosciences Privated Limited, priority 2021, published 2022).
pEC50: −log10 of the molar value.

Target: T1, LXR beta (Homo sapiens, UniProt P55055)
T1 construct: 5 μL of 4×LXR beta-LBD was added to each well (final concentration 5 nM); purchased Thermofisher PV4658
T1 sequence (P55055 222-460 limits assumed): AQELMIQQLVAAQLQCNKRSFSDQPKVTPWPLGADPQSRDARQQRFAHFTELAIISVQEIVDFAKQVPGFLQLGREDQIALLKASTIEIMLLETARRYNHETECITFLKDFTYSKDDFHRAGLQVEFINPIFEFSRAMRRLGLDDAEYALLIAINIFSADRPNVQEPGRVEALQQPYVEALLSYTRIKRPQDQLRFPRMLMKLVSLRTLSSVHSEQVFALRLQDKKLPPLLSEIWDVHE
Test: LXR beta agonist assay (Lanthascreen TR-FRET)
Format: biochemical
Settings: LXR beta-LBD 5 nM, read-out: LXR-β EC50
Method: EC50 values of compounds against LXR beta were determined at Integral BioSciences (India) using Lanthascreen TR-FRET (Thermofisher, Cat #PV4658). Assay was performed in a 20 μL final volume in a Black 384-well plate (Corning, Cat #4511). Dose response curve for the compounds were prepared in duplicates with starting concentration at 30 μM and a three-fold titration was performed. The reaction buffer consisted of TR-FRET Coregulator Buffer G. To the compound dilution, 5 μL of 4×LXR beta-LBD was added to each well (final concentration 5 nM). An equal volume (5 μL) containing 4×Fl-D22/Tb-anti GST antibody (final concentration 100 nM/10 nM) was added to initiate the enzyme reaction and the reaction was incubated for 60 min at 22° C. after which the plates were read using BioTek Plate reader for TR-FRET every hour up to 4 hours.
Analysis was done using the standard curve by non-linear regression, variable slope inhibitor curve fits (Graph-Pad Prism) and EC50's of compounds were determined wherever possible.

Compound | pEC50
CN(CCCC(F)(F)F)C(=O)c1ccc(NC2CN(C3CCN(C(=O)[C@](O)(c4ccccc4)C(F)(F)F)CC3)C2)cc1Cl [Compound 1.125, (R)-2-chloro-N-methyl-4-(1-(1-(3,3,3-trifluoro-2-hydroxy-2-phenylpropanoyl)piperidin-4-yl)azetidin-3-ylamino)-N-(4,4,4-trifluorobutyl)benzamide] | 5.40
CN(C)C(=O)c1c(F)cc(N2CCN(C3CC4(C3)CN(C(=O)C(O)(c3ccccc3)C(F)(F)F)C4)CC2)cc1F (stereo not drawn) [Compound 1.126, 2,6-difluoro-N,N-dimethyl-4-(4-(2-(3,3,3-trifluoro-2-hydroxy-2-phenylpropanoyl)-2-azaspiro[3.3]heptan-6-yl)piperazin-1-yl)benzamide] | 5.80
CN(C)C(=O)c1ccc(C2=CCN(C3CC4(C3)CN(C(=O)C(O)(c3ccccc3)C(F)(F)F)C4)CC2)cc1Cl (stereo not drawn) [Compound 1.127, 2-chloro-N,N-dimethyl-4-(1-(2-(3,3,3-trifluoro-2-hydroxy-2-phenylpropanoyl)-2-azaspiro[3.3]heptan-6-yl)-1,2,3,6-tetrahydropyridin-4-yl)benzamide] | 5.40
CN(C)C(=O)c1cc([N+](=O)[O-])c(NC2CN(C3CCN(C(=O)[C@](O)(c4ccccc4)C(F)(F)F)CC3)C2)cc1Cl [Compound 1.129, (R)-2-chloro-N,N-dimethyl-5-nitro-4-(1-(1-(3,3,3-trifluoro-2-hydroxy-2-phenylpropanoyl)piperidin-4-yl)azetidin-3-ylamino)benzamide] | 5.46
O=C(NCC(F)F)c1ccc(NC2CN(C3CCN(C(=O)C(O)(c4cccc(Cl)c4)C(F)(F)F)CC3)C2)cc1Cl (stereo not drawn) [Compound 1.130, 2-chloro-4-((1-(1-(2-(3-chlorophenyl)-3,3,3-trifluoro-2-hydroxypropanoyl)piperidin-4-yl)azetidin-3-yl)amino)-N-(2,2-difluoroethyl)benzamide] | 5.80
O=C(c1ccc(NC2CN(C3CCN(C(=O)C(O)(c4cccc(Cl)c4)C(F)(F)F)CC3)C2)cc1Cl)N1CC(F)(F)C1 (stereo not drawn) [Compound 1.131, 1-(4-(3-((3-chloro-4-(3,3-difluoroazetidine-1-carbonyl)phenyl)amino)azetidin-1-yl)piperidin-1-yl)-2-(3-chlorophenyl)-3,3,3-trifluoro-2-hydroxypropan-1-one] | 5.75
O=C(c1ccc(NC2CN(C3CCN(C(=O)C(O)(c4cccc(Cl)c4)C(F)(F)F)CC3)C2)cc1Cl)N1CCC(F)(F)C1 (stereo not drawn) [Compound 1.132, 1-(4-(3-((3-chloro-4-(3,3-difluoropyrrolidine-1-carbonyl)phenyl)amino)azetidin-1-yl)piperidin-1-yl)-2-(3-chlorophenyl)-3,3,3-trifluoro-2-hydroxypropan-1-one] | 6.21
O=C(c1ccc(NC2CN(C3CCN(C(=O)C(O)(c4cccc(Cl)c4)C(F)(F)F)CC3)C2)cc1Cl)N1CCC(F)(F)CC1 (stereo not drawn) [Compound 1.133, 1-(4-(3-((3-chloro-4-(4,4-difluoropiperidine-1-carbonyl)phenyl)amino)azetidin-1-yl)piperidin-1-yl)-2-(3-chlorophenyl)-3,3,3-trifluoro-2-hydroxypropan-1-one] | 6.00
CC(=O)N1CCN(C(=O)c2ccc(NC3CN(C4CCN(C(=O)C(O)(c5cccc(Cl)c5)C(F)(F)F)CC4)C3)cc2Cl)CC1 (stereo not drawn) [Compound 1.134, 1-(4-(3-((4-(4-acetylpiperazine-1-carbonyl)-3-chlorophenyl)amino)azetidin-1-yl)piperidin-1-yl)-2-(3-chlorophenyl)-3,3,3-trifluoro-2-hydroxypropan-1-one] | 6.07
